Measured values reported in ChEMBL document CHEMBL1133055, “6-Acylamino-2-[(alkylsulfonyl)oxy]-1H-isoindole-1,3-dione mechanism-based inhibitors of human leukocyte elastase” (Bioorg Med Chem Lett, 2000).

These compounds were tested against T1, Neutrophil elastase (Homo sapiens) (UniProt P08246) (assay: Inhibition of human leukocyte elastase).
T1 sequence (whole entry): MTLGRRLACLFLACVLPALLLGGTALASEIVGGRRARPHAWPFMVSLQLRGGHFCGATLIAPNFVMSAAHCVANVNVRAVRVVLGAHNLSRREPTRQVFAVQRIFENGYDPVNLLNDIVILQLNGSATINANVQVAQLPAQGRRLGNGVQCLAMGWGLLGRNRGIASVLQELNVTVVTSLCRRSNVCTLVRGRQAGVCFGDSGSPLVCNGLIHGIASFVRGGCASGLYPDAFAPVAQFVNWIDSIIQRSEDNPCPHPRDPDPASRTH
Set-up: unit not given here

In order of rising k obs / 1:
1. CS(=O)(=O)ON1C(=O)c2ccc(NC(=O)CCc3ccccc3)cc2C1=O  9700
2. CS(=O)(=O)ON1C(=O)c2ccc(NC(=O)/C=C/c3ccccc3)cc2C1=O  20000
3. CS(=O)(=O)ON1C(=O)c2ccc(NC(=O)c3cccc4ccccc34)cc2C1=O  25000
4. CCS(=O)(=O)ON1C(=O)c2ccc(NC(=O)CCC(=O)OC)cc2C1=O  25000
5. CS(=O)(=O)ON1C(=O)c2ccc(NC(=O)c3ccccc3)cc2C1=O  25000
6. COC(=O)C(=O)Nc1ccc2c(c1)C(=O)N(OS(C)(=O)=O)C2=O  30000
7. CCS(=O)(=O)ON1C(=O)c2ccc(NC(=O)C(=O)OC)cc2C1=O  56000
8. COC(=O)CCCC(=O)Nc1ccc2c(c1)C(=O)N(OS(C)(=O)=O)C2=O  57000
9. CCS(=O)(=O)ON1C(=O)c2ccc(N)cc2C1=O  60000
10. CS(=O)(=O)ON1C(=O)c2ccc(N)cc2C1=O  110000
11. Cc1ccc(S(=O)(=O)N[C@@H](Cc2ccccc2)C(=O)Nc2ccc3c(c2)C(=O)N(OS(C)(=O)=O)C3=O)cc1  160000
12. CCS(=O)(=O)ON1C(=O)c2ccc(NC(=O)CCCC(=O)OC)cc2C1=O  220000

Species: Homo sapiens
Experiment: In vitro inhibition of Serine protease chymotrypsin
Set-up: unit not given here

In order of rising k obs / 1:
1. CS(=O)(=O)ON1C(=O)c2ccc(NC(=O)/C=C/c3ccccc3)cc2C1=O  1600
2. CS(=O)(=O)ON1C(=O)c2ccc(NC(=O)c3cccc4ccccc34)cc2C1=O  3300
3. CS(=O)(=O)ON1C(=O)c2ccc(NC(=O)c3ccccc3)cc2C1=O  3600
4. CS(=O)(=O)ON1C(=O)c2ccc(NC(=O)CCc3ccccc3)cc2C1=O  4800
5. CCS(=O)(=O)ON1C(=O)c2ccc(NC(=O)C(=O)OC)cc2C1=O  5300
6. COC(=O)C(=O)Nc1ccc2c(c1)C(=O)N(OS(C)(=O)=O)C2=O  5400
7. COC(=O)CCCC(=O)Nc1ccc2c(c1)C(=O)N(OS(C)(=O)=O)C2=O  6600
8. CCS(=O)(=O)ON1C(=O)c2ccc(NC(=O)CCC(=O)OC)cc2C1=O  9600
9. Cc1ccc(S(=O)(=O)N[C@@H](Cc2ccccc2)C(=O)Nc2ccc3c(c2)C(=O)N(OS(C)(=O)=O)C3=O)cc1  11000
10. CS(=O)(=O)ON1C(=O)c2ccc(N)cc2C1=O  12000
11. CCS(=O)(=O)ON1C(=O)c2ccc(N)cc2C1=O  13000
12. CCS(=O)(=O)ON1C(=O)c2ccc(NC(=O)CCCC(=O)OC)cc2C1=O  14000

Species: Homo sapiens
Experiment: Ratio of kobs/[l] for human leukocyte elastase and kobs/[l] for chymotrypsin

In order of falling Ratio:
1. CCS(=O)(=O)ON1C(=O)c2ccc(NC(=O)CCCC(=O)OC)cc2C1=O  16
2. Cc1ccc(S(=O)(=O)N[C@@H](Cc2ccccc2)C(=O)Nc2ccc3c(c2)C(=O)N(OS(C)(=O)=O)C3=O)cc1  15
3. CS(=O)(=O)ON1C(=O)c2ccc(NC(=O)/C=C/c3ccccc3)cc2C1=O  13
4. CCS(=O)(=O)ON1C(=O)c2ccc(NC(=O)C(=O)OC)cc2C1=O  11
5. CS(=O)(=O)ON1C(=O)c2ccc(N)cc2C1=O  9.2
6. COC(=O)CCCC(=O)Nc1ccc2c(c1)C(=O)N(OS(C)(=O)=O)C2=O  8.6
7. CS(=O)(=O)ON1C(=O)c2ccc(NC(=O)c3cccc4ccccc34)cc2C1=O  7.6
8. CS(=O)(=O)ON1C(=O)c2ccc(NC(=O)c3ccccc3)cc2C1=O  6.9
9. COC(=O)C(=O)Nc1ccc2c(c1)C(=O)N(OS(C)(=O)=O)C2=O  5.6
10. CCS(=O)(=O)ON1C(=O)c2ccc(N)cc2C1=O  4.6
11. CCS(=O)(=O)ON1C(=O)c2ccc(NC(=O)CCC(=O)OC)cc2C1=O  2.6
12. CS(=O)(=O)ON1C(=O)c2ccc(NC(=O)CCc3ccccc3)cc2C1=O  2
